Source: patent publication US20230349922A1, “H2 Blockers Targeting Liver Macrophages for the Prevention and Treatment of Liver Disease and Cancer” (Université de Strasbourg, priority 2020, published 2023)

Legend:
HRH2/cAMP/PKA axis = assay: PLS assessment upon perturbation of the HRH2/cAMP/PKA axis in Huh7.5.1dif cells; format: cell-based, human; conditions: 48 hours, histamine 10 μM, 8-CPT cAMP 100 μM, H89 10 μM
Description: Histamine, 8-CPT, cAMP and H89 Treatment. Huh7.5.1^dif cells were cultured in DMEM containing 1% FBS and 1% DMSO and incubated with histamine (10 μM) or histamine+nizatidine (10 μM) for 48 hours. Fresh medium containing histamine was replenished every 12 hours. For 8-CPT cAMP and H89, Huh7.5.1^dif cells cultured in DMEM 1% DMSO and 1% FBS were incubated with 8-CPT cAMP (100 μM), H89 (1 μM) or DMSO as a control for 48 hours. Fresh medium containing 8-CPT cAMP was replenished every 12 hours.
Transcriptomic Analysis and PLS Calculation. Gene expression profiling and the 32 gene PLS 32 profiling were performed using 250-500 ng total RNA by using either nCounter Digital Analyzer system (NanoString) or the HumanHT-12 beadarray (Illumina) for the time-course experiments. PLS gene expression was normalized according to 6 housekeeping gene expression using GenePattern genomic analysis toolkits (Hoshida, PLOS ONE, 2010, 5: e15543; Peck et al., Genome Biol., 2006, 7: R61; Reich et al., Nature Genet., 2006, 38: 500-501). Induction or suppression of PLS risk signature was determined as previously reported by using Gene Set Enrichment Analysis (GSEA), implemented in GenePattern genomic analysis toolkits (Hoshida, PLOS ONE, 2010, 5: e15543; Peck et al., Genome Biol., 2006, 7: R61; Reich et al., Nature Genet., 2006, 38: 500-501). PLS was always determined by using CTRL cells as references. Results are presented as simplified heatmaps showing the classification of PLS global status as poor or good prognosis and the significance of induction/suppression of PLS genes (log 10 of false discovery rate (FDR) values). For each experiment, heatmaps show: in the upper part: the classification of PLS global status as poor (orange) or good (green) prognosis, and in the bottom part: the significance of induction (red) or suppression (blue) of PLS poor- or good-prognosis genes. Global status corresponds to the difference between low risk- and high risk-gene expression. The statistic tests, normalized enrichment score (NES) and FDR values are provided for each PLS experiment (poor- and good-prognosis genes variation and global status) in the Source Data file.

natural killer cell = conditions: patients with transarterial chemoembolization (Nishiguchi et al., 2003); cited from earlier work
HCC = conditions: one animal model study (Furuta et al., 2008), circumstantial evidence; cited from earlier work
[1] = in vivo; cited from earlier work
[2] = in vivo; cited from earlier work; remark: listed apart in the source
[3] = system: prognostic liver signature (PLS); assay: cPLS model: reversal of the prognostic liver signature in HCV-infected Huh7.5.1dif cells; format: cell-based, human; conditions: Huh7.5.1dif cells infected with HCV Jc1 for 7 days, treated 3 additional days; GSEA
[4] = rodents; cited from earlier work
[5] = system: M1-polarized THP1-derived macrophages; assay: RNA-Seq / GSEA of M1-polarized THP1-derived macrophages treated with Oxmetidine; format: cell-based, human
Description: M1 Macrophage Polarization and HRH2 Blocker Treatment. THP1 cells were cultured in RPMI 1640 Medium with GlutaMAX™-I supplement and HEPES and supplemented with 10% FBS and gentamycin (0.05 mg/mL). M1 macrophage polarization from THP-1 was performed as previously described (Yeung et al., J. Hepatol., 2015, 62: 607-616). To generate MO THP-1 macrophages, THP1 cells were treated with PMA 320 nM for 24 hours. To generate M1-polarized THP-1 macrophages, THP-1 cells were treated with […] then with 100 ng/ml LPS and 20 ng/ml IFNγ for 18 hours. Cells then were treated with HRH2 blockers 20 μM or DMSO vehicle for 72 hours.
RNA-Seq of M1 macrophages. RNA-Seq was performed on total RNA from MO macrophages, M1-polarized macrophages, and M1-polarized macrophages treated with Oxmetidine, Nizatidine or DMSO (triplicates). RNA-Seq was performed by the Biomedical Sequencing Facility (BSF) CEMM Research Center for Molecular Medicine of the Austrian Academy of Sciences, Vienna (Austria). Briefly, RNA-Seq libraries were generated from 300 ng of total RNA using TruSeq Stranded mRNA Sample Preparation Kit (Illumina, Part Number RS-122-2101). Following purification with poly-T oligo attached magnetic beads, the mRNA was fragmented using divalent cations at 94° C. for 2 minutes. The cleaved RNA fragments were copied into first strand cDNA using reverse transcriptase and random primers. Strand specificity was achieved by replacing dTTP with dUTP during second strand cDNA synthesis using DNA Polymerase I and RNase H. Following addition of a single ‘A’ base and subsequent ligation of the adapter on double stranded cDNA fragments, the products were purified and enriched with PCR (30 seconds at 98° C.; [10 seconds at 98° C., 30 seconds at 60° C., 30 seconds at 72° C.]×12 cycles; 5 minutes at 72° C.) to create the cDNA library. Surplus PCR primers were further removed by purification using AMPure XP beads (Beckman Coulter) and the final cDNA libraries were checked for quality and quantified using 2100 Bioanalyzer (Agilent). Libraries were sequenced on the Illumina HiSeq 4000 as Single-Read 50 base reads following Illumina's instructions. Image analysis and base calling were performed using RTA v2.7.3 and bcl2fastq v2.17.1.14.

[6] = Farup, Scand. J. Gastroenterol., 1988; cited from earlier work
[7] = system: patient-derived HCC tumor spheroids; assay: Cell viability (ATP, CellTiter-Glo) of patient-derived HCC tumorspheroids; format: cell-based, human; conditions: sorafenib 10 μM, 4 days; some of the patient tumors
Description: Patient-Derived HCC Tumor Spheroids. Tumorspheroids were generated from liver tissues from HCC patients undergoing surgical resection and dissociated using the Human Tumor Dissociation Kit. Total cell populations including epithelical (i.e., cancer cells/hepatocytes) and NPCs were used to generate multicellular tumorspheroids in Corning® 96-well Black/Clear Bottom Low Flange Ultra-Low Attachment Microplates (Corning). After 48 hours, HCC-derived spheroids were treated with nizatidine 50 μM, sorafenib 10 μM or DMSO vehicle control for 4 days. Fresh medium containing DMSO or drugs was added every day. Cell viability was assessed using CellTiter-Glo® (Luminescent Cell Viability Assay), according to manufacturer's instruction.

[8] = Oxmetidine vs DMSO, 72 hours, GSEA
[9] = Oxmetidine vs DMSO, 72 hours, GSEA, in contrast to Nizatidine
[10] = single gene level, top 10 of Oxmetidine modulated genes

Compound: Nc1ncnc2c1nc(Sc1ccc(Cl)cc1)n2[C@@H]1O[C@@H]2COP(=O)(O)O[C@H]2[C@H]1O [8-CPT-cAMP]
- PLS poor-prognosis status upon perturbation of the HRH2/cAMP/PKA axis (HRH2/cAMP/PKA axis): induction of the poor-prognosis status of the PLS

Compound: CN/C(=N/CCSCc1nc[nH]c1C)NC#N [Cimetidine]
- natural killer cell activity in peripheral blood (natural killer cell): improves natural killer cell activity in peripheral blood
- anti-HCC effect (HCC): anti-HCC effect

Compound: NC(N)=Nc1nc(CSCCN/C=N/S(=O)(=O)c2ccc(Br)cc2)cs1 [Ebrotidine, 4-bromo-N-[[[2-[[[2-[(diaminomethylene)amino]-4-thiazolyl]methyl]thio]ethyl]amino]methylene] benzenesulfonamide]
- activity against ethanol-, aspirin- or stress-induced gastric mucosal damage [1]: gastroprotective activity
- efficacy for the treatment of gastric or duodenal ulcers or erosive reflux oesophagitis [2]: as effective as Ranitidine

Compound: NC(N)=Nc1nc(CSCCC(N)=NS(N)(=O)=O)cs1 [Famotidine, 3-[[2-(diaminomethylideneamino)-1,3-thiazol-4-yl]methylsulfanyl]-N′-sulfamoyl-propanimidamide]
- reversal of the poor prognosis status of the prognostic liver signature (PLS) [3]: partial reversal of the PLS

Compound: O=S(=O)(NCCNC/C=C/c1ccc(Br)cc1)c1cccc2cnccc12 [H89]
- PLS poor-prognosis status upon perturbation of the HRH2/cAMP/PKA axis (HRH2/cAMP/PKA axis): reversed the induction of the PLS poor-prognosis status

Compound: Cn1nc(CO)nc1NCCCOc1cccc(CN2CCCCC2)c1 [Lavoltidine]
- gastric carcinoid tumors [4]: produced gastric carcinoid tumors in rodents

Compound: CC(C)/N=C/Nc1ccc(-c2c[nH]cn2)cc1 [Mifentidine, N-(4-(1H-imidazol-4-yl)phenyl)-N′-(1-methylethyl)methanimidamide]
- gastric carcinoid tumors [4]: produced gastric carcinoid tumors in rodents

Compound: Cc1[nH]cnc1CSCCNc1ncc(Cc2ccc3c(c2)OCO3)c(=O)[nH]1 [Oxmetidine, 5-(1,3-benzodioxol-5-ylmethyl)-2-[2-[(5-methyl-1H-imidazol-4-yl)methylsulfanyl]ethylamino]-1H-pyrimidin-6-one]
- antigen presentation related-pathways [5, 8]: improves antigen presentation related-pathways
- pathway mediating inflammation (TNFα, IL6) [5, 8]: strongly suppresses pathway mediating inflammation
- IFN response [5, 9]: strong reduction in IFN response
- cell metabolism [5, 9]: improvement of cell metabolism
- expression of key genes regulating lipid metabolism (ABCG1, ABCA1, SREBF1) [5, 10]: increase in expression of key genes regulating lipid metabolism
- pro-inflammatory gene expression (CCL7, CCL2, IL6) [5, 10]: decrease in pro-inflammatory gene expression

Compound: Cc1ncc(-c2csc(N=C(N)N)n2)[nH]1 [Zaltidine, 2-[4-(2-methyl-1H-imidazol-5-yl)-1,3-thiazol-2-yl]guanidine]
- hepatotoxicity [6]: hepatotoxic

Compound: NCCc1c[nH]cn1 [histamine]
- PLS poor-prognosis status upon perturbation of the HRH2/cAMP/PKA axis (HRH2/cAMP/PKA axis): Induction of the PLS poor-prognosis status

Compound: CNC(=O)c1cc(Oc2ccc(NC(=O)Nc3ccc(Cl)c(C(F)(F)F)c3)cc2)ccn1 [sorafenib]
- tumor spheroid response [7]: did not respond
